Measured values as given in patent publication US5955508A, “Method for the enhancement of lymphocyte activity against opportunistic microbial pathogens” (priority 1996, dated 1999).
Where “and” joins values, the source holds several entries; their conditions need not be identical. Equal values may be shown once. Read-outs that look alike come from different tables or passages of the source.

Legend:
[1] = test system: INF-γ in CD4+ (CD8-) T cells; assay: INF-γ production by CD4+ (CD8-) T cells, flow cytometry; type: cell-based, human; settings: for % Positive Cells (INF-γ immunopositive), d-FEN / INF-γ Titer, d-FEN: CD4+ (CD8-) T cells, Mean ± SEM; for activation at 0.05 µg/mL: Homo sapiens, T-cell
Source text: (§1) The T lymphocytes analyzed were obtained from 20 HIV+ patients (9 females and 11 males, 25-48 years of age). The patients were diagnosed as being HIV+ within the past 0.5-9 years, and 15 are being treated with antiviral drugs. The subjects' study identification number (indicates the order in which bloods were drawn), CD4+ and CD8+ counts (determined March, 1996, as part of the present study), age, sex, date of diagnosis, and pharmacotherapy are provided in Table 1.
(§2) The experimental protocol for this project is illustrated in Table A. Note that the cultures were exposed to two doses (5 and 50 ng/ml) of d-FEN in the mitogenesis assays, whereas only one dose (50 ng/ml) was used in the antifungal and cytokine release assays.
(§3) Cytokine Profiles. Peripheral mononuclear cells were isolated by the Ficoll-Hypaque method and washed twice with RPMI-1640 medium. Cell suspensions were made at 1×10^6 /ml and the cells activated with interleukin-2 (IL-2) for 18 h or 4 days at 37° C. under 5% CO^2 +95% air. Monensin (1 nM) then was added to the culture to block secretion of cytokines, and the cultures allowed to continue for another 3 h. The cells were washed twice with PBS+1% fetal calf serum (FCS) with 0.1% saponin+0.1% sodium azide, then washed once with PBS-1% FCS and stained with anti-cytokine MAb-FL conjugate for 30 min. Following two washes, the cells were analyzed by flow cytometry for production of IL-2, IFN-γ and TNF-α. The MAbs-FL conjugates were obtained from Pharmingen (San Diego, Calif.). Potential effects of on cytokine production were evaluated (a) as increases in the percentage of a T cell subset which produce the respective cytokine; and, (b) as increases in the amount of cytokine produced by each subset. The latter were analyzed as a shift of the cytokine histograms.
(§4) The data were analyzed by a one- or two-way analysis of variance (ANOVA) with repeated measures where appropriate ([…] version 1; Jandel, San Rafael, Calif.). Significant main effects were subjected to post hoc analysis using the Student-Newman Keuls All Pairwise Multiple Comparisons test or the Mann-Whitney U test.

INF-γ in CD8+ T cells = assay: INF-γ production by CD8+ T cells, flow cytometry; type: cell-based, human; settings: 50 ng/ml, Mean ± SEM
Source text: as §1, §2, §3, §4

IL-2 in CD8+ T cells = assay: IL-2 production by CD8+ T cells, flow cytometry; type: cell-based, human; settings: for % Positive Cells (IL-2 immunopositive), d-FEN / IL-2 Titer, d-FEN: Mean ± SEM
Source text: as §1, §2, §3, §4

lymphocyte functions = settings: Clancy and Lorens, 1996, Mathews et al.; cited from earlier work
Candida albicans = assay: Lymphocyte mediated antifungal activity against Candida albicans (growth inhibition), lymphocytes from HIV+ patients; type: cell-based; settings: for mean change in antifungal activity: 50 ng/ml d-FEN vs no d-FEN; for Antifungal Units, d-FEN: one line per patient and Mean + SEM
Source text: as §1
The patients fell into one of three groups (Groups A, B and C) based on their CD4+ cell counts (the number of T helper cells/μL blood): 8 of the HIV+ patients had normal (or above normal) CD4+ levels (normal range 550-1500/μL); 4 had levels between 200-499/μL; and, 7 had CD4+ counts equal to or below 200/μL. This latter group of patients by definition have AIDS (see Table 41-3 from K. J. Ryan (Ed.), Sherris Medical Microbiology, Third Edition, Appleton & Lange:Norwalk, Conn., 1994, p. 547). These patients, moreover, have had recurrent candidiasis and other opportunistic infections which have become increasingly difficult to manage. All of the patients' CD8+ cell (cytotoxic T lymphocytes) counts were within or above normal range (300-1000/μL). We were unable to obtain enough lymphocytes from one patient (#4) to analyze their antifungal activity.
as §2
Isolation of Peripheral Blood Mononuclear Cells. Forty ml of venous blood were aseptically drawn into sterile 10 ml tubes containing 20 U/ml preservative free heparin, diluted with an equal volume of Hank's Balanced Salt Solution (HBSS), layered over Lymphocyte Separation Medium (LSM, Bionetics, Kensington, Md.), and centrifuged at 1,000×g for 30 min. After centrifugation, the mononuclear cell layer was recovered from the interface and washed twice in HBSS prior to further manipulation and then enumerated microscopically.
Lymphocyte Mediated Antifungal Activity Against Candida albicans: Fungal Culture. C. albicans cultures were stored at 25° C. on Sabouraud's dextrose agar (SDA) (Becton Dickinson and Co., Cockeysville, Md.). Cells used for experimentation were cultured overnight at 37° C. on SDA, collected as isolated colonies, and washed once in HBSS. Yeast cultures were enumerated microscopically. C. albicans were inoculated into RPMI 1640 medium. C. albicans hyphal forms were obtained by incubation at 37° C. with 5% CO2 in RPMI 1640. Inoculum of 2×10^5 yeast cells/ml yield approximately 100% hyphal fragments when incubated for 2 h at 37° C.
Activation of Lymphocytes. Human peripheral blood lymphocytes were placed in culture medium containing 5×10^-5 2-mercaptoethanol (2-ME) at a concentration of 2.0×10^6 cells/ml with d-FEN (50 ng/ml was added on the second day of culture) and 1,500 U/ml IL-2 (Hoffman-La Roche Inc., Nutley, N.J.) in Falcon, Multiwell plates (Becton Dickinson, Lincoln Park, N.J.) for 3 and 4 days. The cells were harvested following incubation at 37° C., overlaid onto LSM and centrifuged at 1,000×g for 20 min. The cells at the interface were washed twice with HBSS prior to assessment of functional activity.
Measurement of the Inhibition of C. albicans Growth. Fungal cells used for experimentation were collected from isolated, overnight colonies on SDA, and washed once in HBSS. Yeast were resuspended to 2×10^5 /ml in RPMI 1640 and 5×10^3 yeast placed in individual wells of 96 well flat bottom plates (Corning Glass Works, #25861, Corning, N.Y.). […]

[2] = 50 ng/ml, CD8+ T cells, non-AIDS HIV+

CCN[C@@H](C)Cc1cccc(C(F)(F)F)c1 [d-FEN]
% Positive Cells (INF-γ immunopositive), d-FEN ([1]; 50 ng/ml, AIDS): 18 ± 2%
INF-γ Titer, d-FEN ([1]; 50 ng/ml, AIDS): 336 ± 45 geometric mean channel fluorescence
% Positive Cells (INF-γ immunopositive), d-FEN ([1]; 50 ng/ml, non-AIDS HIV+): 16 ± 2%
INF-γ Titer, d-FEN ([1]; 50 ng/ml, non-AIDS HIV+): 473 ± 37 geometric mean channel fluorescence
effect on INF-γ levels in words ([1]; 50 ng/ml, CD4+ T cells): did not have any significant effect
activation at 0.05 µg/mL ([1]; read-out: percent increase over VEH (printed under Titer, d-FEN), 50 ng/ml, CD4+ T cells, AIDS): 38%
activation at 0.05 µg/mL ([1]; read-out: percent increase over VEH (printed under Titer, d-FEN), 50 ng/ml, CD4+ T cells, non-AIDS): 33%
activation at 0.05 µg/mL ([1]; 50 ng/ml, CD4+ T cells, all patients, p=0.007, read-out: increase in the percent of INF-γ immunopositive T cells): 33 to 38%
% Positive Cells (INF-γ immunopositive), d-FEN (INF-γ in CD8+ T cells; AIDS): 40 ± 5%
INF-γ Titer, d-FEN (INF-γ in CD8+ T cells; AIDS): 764 ± 86 geometric mean channel fluorescence
% Positive Cells (INF-γ immunopositive), d-FEN (INF-γ in CD8+ T cells; non-AIDS HIV+): 47 ± 4%
INF-γ Titer, d-FEN (INF-γ in CD8+ T cells; non-AIDS HIV+): 964 ± 71 geometric mean channel fluorescence
% Positive Cells (IL-2 immunopositive), d-FEN (IL-2 in CD8+ T cells; 50 ng/ml, CD8+ T cells, AIDS): 18 ± 4%
IL-2 Titer, d-FEN (IL-2 in CD8+ T cells; 50 ng/ml, CD8+ T cells, AIDS): 147 ± 34 geometric mean channel fluorescence
effect on IL-2 titer in words (IL-2 in CD8+ T cells; 50 ng/ml, CD8+ T cells, non-AIDS): not from the non-AIDS patients
% Positive Cells (IL-2 immunopositive), d-FEN (IL-2 in CD8+ T cells; [2]): 36 ± 3%
IL-2 Titer, d-FEN (IL-2 in CD8+ T cells; [2]): 220 ± 28 geometric mean channel fluorescence
activation at 0.05 µg/mL (IL-2 in CD8+ T cells; Homo sapiens, T-cell, read-out: percent increase of IL-2 titer over VEH): 40%
immune functions in experimental animal models, in words (lymphocyte functions): augment T and B lymphocyte functions, to increase cell-mediated cytotoxicity for natural killer cell (NK) tumor targets and to enhance cell-mediated activities for opportunistic microbial pathogens
mean change in antifungal activity (Candida albicans; Group B): -13%
mean change in antifungal activity (Candida albicans; Group C (AIDS)): +100%
patients showing increased antifungal activity (Candida albicans; 50 ng/ml d-FEN, Group A): 7 of the 8
Antifungal Units, d-FEN (Candida albicans; 50 ng/ml d-FEN, Group A (normal CD4+ HIV+ patients)): 62 Antifungal Units and 84 Antifungal Units and 82 Antifungal Units and 144 Antifungal Units and 31 Antifungal Units and 60 Antifungal Units and 236 Antifungal Units and 95 ± 23 Antifungal Units
antifungal activity response in words (Candida albicans; 50 ng/ml d-FEN, Group B): mixed response
Antifungal Units, d-FEN (Candida albicans; 50 ng/ml d-FEN, Group B (CD4+ 200-499/μL)): 16 Antifungal Units and 164 Antifungal Units and 120 Antifungal Units and 75 Antifungal Units and 94 ± 32 Antifungal Units
patients showing increased antifungal activity (Candida albicans; 50 ng/ml d-FEN, Group C (AIDS)): all 7 of the AIDS patients (Group C) evidenced increased
Antifungal Units, d-FEN (Candida albicans; 50 ng/ml d-FEN, Group C (AIDS)): 130 Antifungal Units and 321 Antifungal Units and 164 Antifungal Units and 355 Antifungal Units and 307 Antifungal Units and 314 Antifungal Units and 394 Antifungal Units and 284 ± 37 Antifungal Units
antifungal activity of Group C vs other two groups (Candida albicans; 50 ng/ml d-FEN, one-way ANOVA p<0.001): significantly greater in the presence of d-FEN
